Experimental data published in paper PMC4551912, “Synthetic biosensors for precise gene control and real-time monitoring of metabolites” (Nucleic Acids Research, 2015).

Assays:
[1] = target: T1, CdaR (Escherichia coli, UniProt P37047); assay type: cell-based; conditions: high-copy plasmid, LB, 37°C; extracellular inducer; activation; lumped parameter of uptake, DNA binding and Kd, not a pure affinity; read-out: Half maximal parameter
T1 sequence (P37047 1-385): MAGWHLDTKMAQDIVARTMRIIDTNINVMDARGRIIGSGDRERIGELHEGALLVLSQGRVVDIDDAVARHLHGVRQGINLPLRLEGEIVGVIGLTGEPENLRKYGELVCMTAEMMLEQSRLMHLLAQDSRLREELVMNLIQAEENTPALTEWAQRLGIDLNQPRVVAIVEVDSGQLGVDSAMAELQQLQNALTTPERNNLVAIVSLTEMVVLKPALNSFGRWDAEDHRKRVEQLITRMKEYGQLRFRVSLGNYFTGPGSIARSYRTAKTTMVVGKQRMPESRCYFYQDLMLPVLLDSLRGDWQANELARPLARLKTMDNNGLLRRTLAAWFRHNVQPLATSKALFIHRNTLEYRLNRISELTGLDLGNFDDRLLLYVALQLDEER

[2] = target: TetR (Escherichia coli, UniProt P04483); assay type: cell-based; conditions: high-copy plasmid, LB, 37°C; extracellular inducer; induction (derepression); lumped parameter of uptake, DNA binding and Kd, not a pure affinity; read-out: Half maximal parameter
Sequence of TetR (P04483 whole entry, looked up): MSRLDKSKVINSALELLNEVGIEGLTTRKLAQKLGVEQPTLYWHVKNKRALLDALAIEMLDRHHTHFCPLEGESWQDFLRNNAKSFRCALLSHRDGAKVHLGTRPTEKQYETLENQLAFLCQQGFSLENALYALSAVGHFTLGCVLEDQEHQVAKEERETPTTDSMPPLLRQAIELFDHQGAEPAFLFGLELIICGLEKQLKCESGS

EC50 [1] [µM]	Compound	EC50 [2] [µM]
490 ± 60	O=C(O)[C@@H](O)[C@@H](O)[C@H](O)[C@@H](O)C(=O)O [glucarate]	–
–	Cc1c2c(c(O)c3c(O)cccc13)C(=O)[C@]1(O)C(=O)C(C(N)=O)=C(O)[C@@H](N(C)C)[C@@H]1C2 [anhydrotetracycline]	0.081 ± 0.001
